US20140243415A1, “COMPOUNDS INHIBITING GALECTIN-1 EXPRESSION, CANCER CELL PROLIFERATION, INVASION, AND TUMORIGENESIS” (ONCOETHIX SA, priority 2011, published 2014)

Tests used:
[1] = system: SQ20B cells; assay: Cell cycle analysis by flow cytometry; assay type: cell-based, human; details: 72 h exposure
Description: Cell cycle analysis was assessed by flow cytometry. In brief, cells were seeded onto […] flasks and treated with various concentrations of OTX-008. After 72 h exposure, adherent and non-adherent cells were recovered, washed with PBS, fixed in 70% ethanol and stored at −20° C. until use. Cells were rehydrated in PBS, incubated for 30 minutes at 37° C. with 200 μg/ml RNAse A, and for 20 minutes at +4° C. with 40 μg/ml propidium iodide in the dark. The cell cycle distribution was determined with a flow cytometer (FACSCalibur and Cell Quest Pro software, BD Biosciences, Le-Pont-de-Claix, France).
To study the mechanism of OTX-008-induced inhibition of cell proliferation, the effect of OTX-008 on cell cycle in SQ20B cells was examined (FIG. 5B). […] Activation of cdc2 (cdk1) by de-phosphorylation of tyrosine 15 is required for G2/M transition. […] Thus, the level of phosphorylated cdc2 on tyrosine 15 and wee1 on serine 642 in SQ20B cell line were exposed to 3 μM OTX-008 for 72 h. […] In order to determine the potential relationship between the inhibition of MAPK signaling pathways and the effects on cell cycle by OTX-008, SQ20B cells were pretreated for 2 h with the ERK1/2 inhibitor UO126 followed by the OTX-008 addition for 72 hours.

[2] = system: SQ-shGal1 cells; assay: Antiproliferative effects in galectin-1 silenced cells; assay type: cell-based, human; details: SQ-shGal1 cells in vitro
Description: Galectin-1 shRNA, Semaphorin-3A shRNA and scrambled shRNA plasmids were purchased from Santa Cruz Biotechnology (Santa Cruz, Calif., USA) and transfected into cells using the manufacturer's shRNA transfection protocol. Briefly, a mix of 1 μg shRNA plasmid DNA solution and lpl shRNA plasmid transfection reagent were incubated 45 minutes at room temperature and then added on 50% confluent cells with shRNA plasmid transfection medium. After 6 hours incubation at 37° C., normal growth medium containing double serum and antibiotics concentration was added. After 24 h, the stably transfected cells were selected with puromycin.
SQ-shGal1 cells were developed from SQ20B using a small hairpin GAL1-RNA silencing transfection. SQ-shGal1 cells display no difference in cell doubling-time and cloning capacity but expressed lower galectin-1 expression and invasive capacity in matrigel as compared to SQ20B (FIG. 8). […] As shown in FIG. 6C-left, silencing galectin-1 expression in mice was associated with a decreased development of secondary tumors as compared to parental SQ20B tumors. SQ-shGal1 cancer cells in tumors expressed lower level of Ki67 and VEGFR-2 expressions (FIG. 6D).

[3] = system: A2780-1A9 ovarian xenografts; assay: A2780-1A9 xenograft model; assay type: in vivo
Description: FIG. 6. […] A—The antitumor effects of OTX-008 on A2780-1A9 xenograft were compared to that of active doses of cisplatin and paclitaxel—solid line represents days of treatment. B—Immunohistochemistry of galectin-1, Ki67 (MIB-1) and CD31 on A2780-1A9 xenograft. C—Tumor growth and secondary tumor formation of SQ20B xenografts untreated and treated with 10 mg/kg/day OTX-008 and SQ-shGAL1 xenografts. Tumor volume was determined as 3.14(width2)/length—solid line represents days of treatment. D—Immunohistochemistry of galectin-1, MIB1, VEGFR2 and CD31 on SQ20B xenografts
The immunohistochemical procedure was performed on OCT-embedded subcutaneous tumor stained with H&E, MIB1 ( 1/400, Dako, Glostrup, Denmark), CD31 ( 1/200, Dako), VEGFR2 ( 1/125, Cell Signaling, Saint Quentin Yvelines, France) or galectin-1 (1:20, Abcam, Cambridge, Mass., USA) using an automated immunohistochemical stainer according to the manufacturer's guidelines (streptavidin-peroxidase protocol; Benchmark, Ventana, Tuscon, Ariz., USA). The images were captured and analyzed with a Zeiss observer Z1 microscope. Images quantification was performed using Histolab Software (Microvision, France) subtracting the background. Magnification ×20 and ×40.
A volume containing 8.10^6 A2780-1A9 cancer cells was injected s.c. into the right lateral flank of female nu/nu athymic mice. When tumors become palpable, mice were randomized and treated i.p. with PBS (3 days per week), 5 mg/kg OTX-008 (3 days per week), 6 mg/kg cisplatin (days 1, 8 and 15) or 10 mg/kg taxotere (days 1, 8 and 15). Tumor size was measured three times per week with caliper and tumor volume was calculated as (length×width^2)/2. At the end of the study, animals were sacrificed and tumors collected and frozen in OCT for molecular biology and immunohistochemical analysis. Mouse experiments were approved by the Animal Housing and Experiment Board of the French government.

[4] = system: A2780-1A9; assay: MTT cell cytotoxicity assay; assay type: cell-based, human
Description: (§1) Cell survival was determined using the MTT assay (3-[4,5-dimethylthiazol-2-yl]-2,5-diphenyltetrazolium bromide; Sigma, Saint-Quentin Fallavier, France). The conversion of yellow water-soluble tetrazolium MTT into purple insoluble formazan is catalyzed by mitochondrial dehydrogenases and used to estimate the number of viable cells. In brief, cells were seeded in 96-well tissue culture plates at a density of 2×10^3 cells/well. After 72 h drug exposure and 48 h wash-out, cells were incubated with 0.4 mg/ml MTT for 4 hours at 37° C. After incubation, the supernatant was discarded, insoluble formazan precipitates were dissolved in 0.1 ml of DMSO and the absorbance was measured at 560 nm by use of a microplate reader (Thermo, France). Wells with untreated cells or with drug-containing medium without cells were used as positive and negative controls respectively. IC50's were determined as the halves of maximal inhibitory drug concentration for each cell line.
(§2) The antiproliferative effects of OTX-008 and anginex were assessed using MTT assay in a panel of human cancer cell lines of human origins expressing various levels of Lgals-1 mRNA and galectin-1 protein expressions (Supplementary Table 1). […] Remaining cell lines were less sensitive to OTX-008 with GI50 values >9 μM. […] No correlation between mRNA expressions of galectin-2, galectin-3, and galectin-8 as well as semaphorin-3A, semaphorin-3B, neuropilin-1, VEGFR1-3, VEGFA-D, and PDGFRa&P3 and sensitivity to OTX-008 were detected in the panel.

[5] = system: OVCAR3; assay: MTT cell cytotoxicity assay; assay type: cell-based, human; details: 72 h drug exposure and 48 h wash-out
Description: as §1, §2

[6] = system: SQ20B; assay: MTT cell cytotoxicity assay; assay type: cell-based, human
Description: as §1, §2

[7] = 72 h drug exposure and 48 h wash-out

Compound: CN(C)CCNC(=O)COc1c2cccc1Cc1cccc(c1OCC(=O)NCCN(C)C)Cc1cccc(c1OCC(=O)NCCN(C)C)Cc1cccc(c1OCC(=O)NCCN(C)C)C2 [OTX-008]
- cell cycle distribution [1]: dose-dependent accumulation of cells in G2/M phase
- antiproliferative effects in galectin-1 silenced cells [2]: does not further increase its antiproliferative effects
- tumor growth ([3]; 5 mg/kg OTX-008 i.p., 3 days per week): Tumor growth inhibition
- antitumor effects relative to cisplatin and docetaxel ([3]; 5 mg/kg OTX-008 vs 6 mg/kg cisplatin, 10 mg/kg taxotere): comparable to that of cisplatin and docetaxel
- VEGFR-2 expression ([3]; A2780-1A9 tumors): decreased expression of VEGFR-2
- number of micro-vessels in tumors ([3]; A2780-1A9 tumors): decreased number of micro-vessel
- proliferation as measured by Ki67 expression ([3]; A2780-1A9 tumors): significantly reduced
- toxicity at active doses ([3]; nude mice): no toxicity
- vessels lumen surface area ([3]; vs control): significant decrease of the surface of vessels
- galectin-1 expression in tumors (immunohistochemistry) ([3]; vs non treated tumors): significant lower galectin-1 expression
- sensitivity to OTX-008 [4]: only marginally sensitive
- antiproliferative effects (MTT) [4, 7]: dose-dependent antiproliferative effects
- antiproliferative effects (MTT) [5]: dose-dependent antiproliferative effects
- sensitivity to OTX-008 among the cell lines tested [6]: most sensitive
- antiproliferative effects (MTT) [6, 7]: dose-dependent antiproliferative effects
